The compounds below were run against T1, FGFR1-GST (Homo sapiens, UniProt P11362) (assay: FGFR-1 TR-FRET biochemical assay). Conditions: bounds given in nM.
T1 construct: GST; made in house
Protocol: FGFR-1 TR-FRET Biochemical Assay
The FGFR-1 Assay was performed on half well 96-well opaque plates (Costar 3915) in a LANCE format. LANCE is a homogenous time resolved fluormetry based application available through Perkin Elmer. For this assay, 50 uL reactions were set up using: 0.6 uM ATP (Sigma), 25 nM poly GT-biotin (CIS BIO International), 2 nM Eu-labelled phospho-Tyr Ab (PY20 PerkinElmer), 10 nM Streptavidin-APC (Perkin Elmer), 5 nM FGFR1-GST (generated by DRT, Bayer Healthcare), 1% DMSO, 50 mM HEPES pH 7.5, 10 mM MgCl2, 0.1 mM EDTA, 0.015% Brij, 0.1 mg/ml BSA, 0.1% B-mercaptoethanol. All reactions were initiated with the addition of enzyme and were left to incubate for one hour at room temperature. Time-resolved fluorescence was then read on a Perkin Elmer VictorV Multilabel counter. The reading protocol uses an excitation wavelength at 340 nm and emission reads at both 615 and 665 nm. Signal was calculated as a ratio: (Fluorescence at 665 nm/Fluorescence at […])*10000 for each well. The background control used for this assay is the signal produced with all assay components excluding ATP. For IC50 generation, compounds were added prior to the enzyme initiation. A 50-fold stock plate was made with compounds serially diluted 1:5 in a 50% DMSO/50% dH2O solution. A 1 μL addition of the stock to the assay wells gave final compound concentrations ranging from 10 μM −0.128 nM in 1% DMSO. The data were expressed as percent inhibition: % inhibition=100−((Signal with inhibitor-background)/(Signal without inhibitor−background))*100.

T1 sequence (P11362 22-822): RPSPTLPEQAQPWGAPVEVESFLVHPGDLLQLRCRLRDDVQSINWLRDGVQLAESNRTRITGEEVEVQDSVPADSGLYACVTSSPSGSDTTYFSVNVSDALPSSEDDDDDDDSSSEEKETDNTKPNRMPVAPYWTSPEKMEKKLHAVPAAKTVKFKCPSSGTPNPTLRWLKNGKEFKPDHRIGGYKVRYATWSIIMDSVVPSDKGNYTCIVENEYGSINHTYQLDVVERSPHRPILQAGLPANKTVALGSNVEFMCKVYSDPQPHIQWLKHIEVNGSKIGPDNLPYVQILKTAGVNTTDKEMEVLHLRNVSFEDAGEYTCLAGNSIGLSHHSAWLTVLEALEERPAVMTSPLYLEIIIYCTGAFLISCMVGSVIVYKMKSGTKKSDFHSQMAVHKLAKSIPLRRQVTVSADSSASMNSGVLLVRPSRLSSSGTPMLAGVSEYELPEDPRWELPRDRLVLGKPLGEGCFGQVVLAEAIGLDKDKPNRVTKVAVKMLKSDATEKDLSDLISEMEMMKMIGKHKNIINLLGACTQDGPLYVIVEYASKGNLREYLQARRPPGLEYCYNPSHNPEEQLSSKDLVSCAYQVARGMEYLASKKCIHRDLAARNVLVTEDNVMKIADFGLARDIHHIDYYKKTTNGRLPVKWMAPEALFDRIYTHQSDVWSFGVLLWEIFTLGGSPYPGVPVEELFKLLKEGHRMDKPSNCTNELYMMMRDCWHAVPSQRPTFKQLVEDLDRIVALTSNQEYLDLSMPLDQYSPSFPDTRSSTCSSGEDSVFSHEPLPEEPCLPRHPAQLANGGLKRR

IC50 [nM]	SMILES
10 to 100	COCc1c(-c2ccc(NC(=O)Nc3cc(C(F)(F)F)ccc3Cl)c(F)c2)c2c(N)ncnn2c1CN1CCOCC1 [Example 142, N-{4-[4-amino-6-(methoxymethyl)-7-(morpholin-4-ylmethyl)-pyrrolo[2,1-f][1,2,4]triazin-5-yl]-2-fluorophenyl}-N′-[2-chloro-5-(trifluoromethyl)phenyl]urea]
< 10	N#CCc1c(-c2ccc(NC(=O)Nc3cc(C(F)(F)F)ccc3F)c(F)c2)c2c(N)ncnn2c1CN1CCS(=O)(=O)CC1 [Example 79, N-(4-{4-amino-6-(cyanomethyl)-7-[(1,1-dioxidothiomorpholin-4-yl)methyl]pyrrolo[2,1-f][1,2,4]triazin-5-yl}-2-fluorophenyl)-N′-[2-fluoro-5-(trifluoromethyl)phenyl]urea]
10 to 100	Nc1ncnn2c(CN3CCOCC3)c(C(=O)C3CC3)c(-c3ccc(NC(=O)Nc4cc(C(F)(F)F)ccn4)cc3)c12 [Example 89, N-{4-[4-amino-6-(cyclopropylcarbonyl)-7-(morpholin-4-ylmethyl)pyrrolo[2,1-f][1,2,4]triazin-5-yl]phenyl}-N′-[4-(trifluoromethyl)pyridin-2-yl]urea]
10 to 100	COCc1c(-c2ccc(NC(=O)Nc3cc(C(F)(F)F)ccn3)cc2)c2c(N)ncnn2c1CN1CCN(C(C)=O)CC1 [Example 37, N-4-[7-[(4-acetylpiperazin-1-yl)methyl]-4-amino-6-(methoxy-methyl)pyrrolo[2,1-f][1,2,4]triazin-5-yl]phenyl-N′-[4-(trifluoromethyl)pyridin-2-yl]urea]
< 10	CC(=O)c1c(-c2ccc(NC(=O)Nc3cc(C(F)(F)F)ccn3)c(F)c2)c2c(N)ncnn2c1CN1CCOCC1 [Example 60, N-4-[6-acetyl-4-amino-7-(morpholin-4-ylmethyl)pyrrolo[2,1-f][1,2,4]triazin-5-yl]-2-fluorophenyl-N′-[4-(trifluoromethyl)pyridin-2-yl]urea]
10 to 100	COCc1c(-c2ccc(NC(=O)Nc3cc(C(F)(F)F)ccc3F)c(F)c2)c2c(N)ncnn2c1CN1CCOC(CO)C1 (stereo not drawn) [Example 47, N-{4-[4-amino-7-{[2-(hydroxymethyl)morpholin-4-yl]methyl}-6-(methoxymethyl)pyrrolo[2,1-f][1,2,4]triazin-5-yl]-2-fluorophenyl}-N′-[2-fluoro-5-(trifluoromethyl)-phenyl]urea]
10 to 100	CCC(=O)c1c(-c2ccc(NC(=O)Nc3cc(C(F)(F)F)ccn3)cc2)c2c(N)ncnn2c1CN1CCOCC1 [Example 90, N-{4-[4-amino-7-(morpholin-4-ylmethyl)-6-propionylpyrrolo[2,1-f][1,2,4]triazin-5-yl]phenyl}-N′-[4-(trifluoromethyl)-pyridin-2-yl]urea]
< 10	CC(=O)c1c(-c2ccc(NC(=O)Nc3cccc(C(F)(F)F)c3)c(F)c2)c2c(N)ncnn2c1CN1CCOCC1 [Example 58, N-4-[6-acetyl-4-amino-7-(morpholin-4-ylmethyl)pyrrolo[2,1-f][1,2,4]triazin-5-yl]-2-fluorophenyl-N′-[3-(trifluoromethyl)phenyl]urea]
> 100	CCOC(=O)c1c(-c2ccc(NC(=O)Nc3cc(C(F)(F)F)ccn3)cc2)c2c(N)ncnn2c1C#N [Example 6, ethyl 4-amino-7-cyano-5-{4-[({[4-(trifluoromethyl)pyridin-2-yl]amino}carbonyl)amino]phenyl}pyrrolo[2,1-f][1,2,4]triazine-6-carboxylate]
< 10	N#CCc1c(-c2ccc(NC(=O)Nc3cc(C(F)(F)F)ccc3F)cc2)c2c(N)ncnn2c1CN1CCNC(=O)C1 [Example 70, N-(4-{4-amino-6-(cyanomethyl)-7-[(3-oxopiperazin-1-yl)methyl]pyrrolo[2,1-f][1,2,4]triazin-5-yl}phenyl)-N′-[2-fluoro-5-(trifluoromethyl)phenyl]urea]
10 to 100	CC(=O)c1c(-c2ccc(NC(=O)Nc3cc(C(F)(F)F)ccn3)cc2)c2c(N)ncnn2c1CN1CCOCC1 [Example 88, N-{4-[6-acetyl-4-amino-7-(morpholin-4-ylmethyl)pyrrolo[2,1-f][1,2,4]triazin-5-yl]phenyl}-N′-[4-(trifluoromethyl)-pyridin-2-yl]urea]
> 100	CON(C)C(=O)c1c(-c2ccc(NC(=O)Nc3cc(C(F)(F)F)ccn3)cc2)c2c(N)ncnn2c1CN1CCN(C)CC1 [Example 94, 4-amino-N-methoxy-N-methyl-7-[(4-methylpiperazin-1-yl)methyl]-5-{4-[({[4-(trifluoromethyl)pyridin-2-yl]amino}-carbonyl)amino]-phenyl}pyrrolo[2,1-f][1,2,4]triazine-6-carboxamide]
10 to 100	CCc1c(-c2ccc(NC(=O)Nc3cc(C(F)(F)F)ccn3)cc2)c2c(N)ncnn2c1CN1CCOCC1 [Example 148, N-{4-[4-amino-6-ethyl-7-(morpholin-4-ylmethyl)pyrrolo[2,1-f][1,2,4]triazin-5-yl]phenyl}-N′-[4-(trifluoromethyl)pyridin-2-yl]urea]
< 10	Cc1cc(-c2c(C)c(CN3CCOCC3)n3ncnc(N)c23)ccc1NC(=O)Nc1cc(C(F)(F)F)ccn1 [Example 119, N-{4-[4-amino-6-methyl-7-(morpholin-4-ylmethyl)pyrrolo[2,1-f][1,2,4]triazin-5-yl]-2-methylphenyl}-N′-[4-(trifluoromethyl)pyridin-2-yl]urea]
10 to 100	CN1CCN(Cc2c(C#N)c(-c3ccc(NC(=O)Nc4cc(C(F)(F)F)ccc4F)cc3)c3c(N)ncnn23)CC1 [Example 55, N-(4-4-amino-6-cyano-7-[(4-methylpiperazin-1-yl)methyl]-pyrrolo[2,1-f][1,2,4]triazin-5-ylphenyl)-N′-[2-fluoro-5-(trifluoromethyl)-phenyl]urea]
10 to 100	COCc1c(-c2ccc(NC(=O)Nc3cc(C(F)(F)F)ccc3F)cc2)c2c(N)ncnn2c1CN1CCN(C(C)=O)CC1 [Example 21, N-{4-[7-[(4-acetylpiperazin-1-yl)methyl]-4-amino-6-(methoxymethyl)pyrrolo[2,1-f][1,2,4]triazin-5-yl]phenyl}-N′-[2-fluoro-5-(trifluoromethyl)phenyl]urea]
> 100	COCc1c(-c2ccc(NC(=O)Nc3cc(C(F)(F)F)ccc3F)c(F)c2)c2c(N)ncnn2c1C1CCN(C(=O)N(C)C)CC1 [Example 150, 4-{4-amino-5-[3-fluoro-4-({[2-fluoro-5-(trifluoromethyl)-phenyl]carbamoyl}amino)phenyl]-6-(methoxymethyl)-pyrrolo[2,1f][1,2,4]-triazin-7-yl}-N,N-dimethylpiperidine-1-carboxamide]
10 to 100	CC(=O)c1c(-c2ccc(NC(=O)Nc3cc(C(F)(F)F)ccc3F)c(F)c2)c2c(N)ncnn2c1CN1CCOCC1 [Example 57, N-4-[6-acetyl-4-amino-7-(morpholin-4-ylmethyl)pyrrolo[2,1-f]-[1,2,4]triazin-5-yl]-2-fluorophenyl-N′-[2-fluoro-5-(trifluoromethyl)phenyl]urea]
10 to 100	CS(=O)(=O)N1CCN(Cc2c(CC#N)c(-c3ccc(NC(=O)Nc4cc(C(F)(F)F)ccn4)cc3)c3c(N)ncnn23)CC1 [Example 67, N-[4-(4-amino-6-(cyanomethyl)-7-{[4-(methylsulfonyl)piperazin-1-yl]methyl}pyrrolo[2,1-f][1,2,4]triazin-5-yl)phenyl]-N′-[4-(trifluoromethyl)pyridin-2-yl]urea]
> 100	Nc1ncnn2c(CN3CCOCC3)c(Cl)c(-c3cc(F)c(NC(=O)Nc4cc(C(F)(F)F)ccc4F)cc3F)c12 [Example 156, N-{4-[4-amino-6-chloro-7-(morpholin-4-ylmethyl)pyrrolo[2,1-f][1,2,4]triazin-5-yl]-2,5-difluorophenyl}-N′-[2-fluoro-5-(trifluoromethyl)-phenyl]urea]
< 10	COCc1c(-c2ccc(NC(=O)Nc3cc(C(F)(F)F)ccn3)c(C)c2)c2c(N)ncnn2c1CN1CCOCC1 [Example 145, N-4-[4-amino-6-(methoxymethyl)-7-(morpholin-4-ylmethyl)pyrrolo[2,1-f][1,2,4]triazin-5-yl]-2-methylphenyl-N′-[4-(trifluoromethyl)pyridin-2-yl]urea]
10 to 100	COCc1c(-c2ccc(NC(=O)Nc3cc(C(F)(F)F)ccc3F)c(F)c2)c2c(N)ncnn2c1CN1CCS(=O)(=O)CC1 [Example 43, N-{4-[4-amino-7-[(1,1-dioxidothiomorpholin-4-yl)methyl]-6-(methoxymethyl)pyrrolo[2,1-f][1,2,4]triazin-5-yl]-2-fluorophenyl}-N′-[2-fluoro-5-(trifluoromethyl)phenyl]urea]
10 to 100	COCc1c(-c2ccc(NC(=O)Nc3cc(C(F)(F)F)ccn3)cc2)c2c(N)ncnn2c1CN1CCOCC1 [Example 35, N-4-[4-amino-6-(methoxymethyl)-7-(morpholin-4-ylmethyl)pyrrolo[2,1-f][1,2,4]triazin-5-yl]phenyl-N′-[4-(trifluoromethyl)pyridin-2-yl]urea]

Same assay, conditions: upper bound in μM

IC50 [nM]	SMILES
< 1000	CCOC(=O)c1c(-c2ccc(NC(=O)Nc3cc(C(F)(F)F)ccn3)cc2)c2c(N)ncnn2c1C#N [Example 6, ethyl 4-amino-7-cyano-5-{4-[({[4-(trifluoromethyl)pyridin-2-yl]amino}carbonyl)amino]phenyl}pyrrolo[2,1-f][1,2,4]triazine-6-carboxylate]
< 1000	CON(C)C(=O)c1c(-c2ccc(NC(=O)Nc3cc(C(F)(F)F)ccn3)cc2)c2c(N)ncnn2c1CN1CCN(C)CC1 [Example 94, 4-amino-N-methoxy-N-methyl-7-[(4-methylpiperazin-1-yl)methyl]-5-{4-[({[4-(trifluoromethyl)pyridin-2-yl]amino}-carbonyl)amino]-phenyl}pyrrolo[2,1-f][1,2,4]triazine-6-carboxamide]
< 1000	COCc1c(-c2ccc(NC(=O)Nc3cc(C(F)(F)F)ccc3F)c(F)c2)c2c(N)ncnn2c1C1CCN(C(=O)N(C)C)CC1 [Example 150, 4-{4-amino-5-[3-fluoro-4-({[2-fluoro-5-(trifluoromethyl)-phenyl]carbamoyl}amino)phenyl]-6-(methoxymethyl)-pyrrolo[2,1f][1,2,4]-triazin-7-yl}-N,N-dimethylpiperidine-1-carboxamide]
< 1000	Nc1ncnn2c(CN3CCOCC3)c(Cl)c(-c3cc(F)c(NC(=O)Nc4cc(C(F)(F)F)ccc4F)cc3F)c12 [Example 156, N-{4-[4-amino-6-chloro-7-(morpholin-4-ylmethyl)pyrrolo[2,1-f][1,2,4]triazin-5-yl]-2,5-difluorophenyl}-N′-[2-fluoro-5-(trifluoromethyl)-phenyl]urea]

— patent publication US8829185B2 (Bayer HealthCare LLC, priority 2005, dated 2014)
